Consider 15 compounds from patent US20250215030A1, “STAT MODULATORS AND USES THEREOF” (Recludix Pharma, Inc., priority 2022, published 2025).

T1 sequence (P40763 whole entry): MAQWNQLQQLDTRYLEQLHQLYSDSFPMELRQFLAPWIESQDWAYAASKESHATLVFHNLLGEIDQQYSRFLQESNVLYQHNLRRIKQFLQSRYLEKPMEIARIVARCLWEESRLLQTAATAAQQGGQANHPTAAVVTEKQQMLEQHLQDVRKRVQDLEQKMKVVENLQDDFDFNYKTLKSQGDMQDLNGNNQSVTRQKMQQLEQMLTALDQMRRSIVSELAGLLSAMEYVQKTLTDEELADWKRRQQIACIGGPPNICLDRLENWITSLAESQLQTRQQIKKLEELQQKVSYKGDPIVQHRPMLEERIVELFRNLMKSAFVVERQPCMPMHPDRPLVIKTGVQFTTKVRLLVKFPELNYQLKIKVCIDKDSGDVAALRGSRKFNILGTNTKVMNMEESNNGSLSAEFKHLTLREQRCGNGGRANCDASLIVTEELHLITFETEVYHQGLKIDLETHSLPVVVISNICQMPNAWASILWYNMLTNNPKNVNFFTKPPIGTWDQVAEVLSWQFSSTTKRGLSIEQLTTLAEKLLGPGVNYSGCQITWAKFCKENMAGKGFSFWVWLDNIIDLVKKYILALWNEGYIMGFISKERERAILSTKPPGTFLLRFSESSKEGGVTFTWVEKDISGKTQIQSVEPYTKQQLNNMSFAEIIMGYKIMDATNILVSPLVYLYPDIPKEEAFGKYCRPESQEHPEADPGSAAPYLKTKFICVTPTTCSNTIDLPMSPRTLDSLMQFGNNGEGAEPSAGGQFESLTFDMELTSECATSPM

One experiment has as its target T1, pSTAT3 (pY705-STAT3) (Homo sapiens, UniProt P40763).
T1 construct: host or cells: cryopreserved PBMC
The experiment is described as follows: MSD-pSTAT-PBMC Assay (pSTAT3, IL-6 stimulated). In kind it is cell-based.
Conditions: not given
The source says: Cryopreserved Peripheral Blood Mononuclear Cells (PBMC) are from AllCells. Recombinant Human IL-4 and IL-6 are from Peprotech. Mouse monoclonal anti-STAT3 antibody, rabbit monoclonal anti-pY705-STAT3 antibody, rabbit monoclonal Anti-pY641-STAT6 antibody, and lysis buffer are from Cell Signaling Technology (CST). Mouse monoclonal anti-STAT6 antibody is from BioLegend. Assay plates, blocker, and anti-rabbit secondary antibody are from Meso Scale Discovery (MSD).
Cryopreserved PBMCs were thawed out and allowed to recover overnight in IMDM+10% heat-inactivated FBS prior to plating 50,000 (STAT3) or 25,000 (STAT6) cells per well in 96-well U-bottom tissue culture plates. Cells were treated with compound for 3 hrs, then stimulated with 10 ng/mL IL-6 (STAT3) or 1 ng/mL IL-4 (STAT6) for 10 min. Cells were then spun down and washed with ice-cold PBS prior to lysing the cell pellet with 1× lysis buffer (CST) with 1× HALT protease and phosphatase inhibitor cocktail (Thermo). Lysates were transferred to and incubated overnight at 4° C. with shaking in QuickPlex 96-well high bind assay plates (MSD) pre-coated overnight with 30 μL per well of 0.6 μg/mL mouse monoclonal anti-STAT3 antibody (STAT3) or 2 μg/mL mouse monoclonal anti-STAT6 antibody (STAT6) in 1×PBS, and pre-blocked for 1 hour with 3% Blocker-A (MSD). Captured protein in the assay plates were then washed and probed with 25 μL per well of 0.25 μg/ml rabbit monoclonal anti-pY705-STAT3 antibody (STAT3) or 0.18 μg/ml rabbit monoclonal Anti-pY641-STAT6 antibody (STAT6) in 1% Blocker-A for 1 hour at room temperature with shaking, then washed and probed with 25 ul per well of 1 ug/mi Sulfo-TAG Labeled Goat Anti-Rabbit Antibody (MSD) in 1% Blocker-A for 1 hour at room temperature with shaking. Assay plates were then washed and 150 μL of 1× Read Buffer-T (MSD) was added to each well prior to reading on an SQ120 MSD Plate Reader. Assay signal from each sample was subtracted by the signal from unstimulated control wells and normalized to DMSO control wells. IC50 values were calculated using Graph Pad Prism Dose-Response Nonlinear Regression with variable slope. For both pSTAT3 and pSTAT6 A=≤100 nM; B=>100-1000 nM; C=>1000-3000 nM; and D=>3 μM.
In turn, `O=C(N[C@H]1C[C@@H]2C[C@@H]2C[C@H]2CC[C@@H](C(=O)N3CC(C(=O)N4CCOCC4)C3)N2C1=O)c1cc2cc(C(F)(F)P(=O)(N[C@@H](CCc3ccccc3)C(=O)OCc3ccccc3)Oc3ccccc3)ccc2s1` (stereo partly drawn) [Compound 159, benzyl (2S)-2-(((difluoro(2-(((3S,6S,7aS, 8aR,9aR)-3-(3-(morpholine-4-carbonyl)azetidine-1-carbonyl)-5-oxodecahydro-1H-cyclopropa[d]pyrrolo[1,2-a]azocin-6-yl)carbamoyl)benzo[b]thiophen-5-yl)methyl) (phenoxy)phosphoryl)amino)-4-phenylbutanoate] gave an IC50 greater than 3 µM.

`CCCOC(=O)[C@H](C)NP(=O)(Oc1ccccc1)C(F)c1ccc2sc(C(=O)N[C@H]3C[C@@H]4C[C@@H]4C[C@H]4CC[C@@H](C(=O)N5CC(c6cnccc6N6CCC6)C5)N4C3=O)cc2c1` (single isomer, unassigned) [Compound 426] had an IC50 of less than 0.1 µM.

`CCCOC(=O)[C@H](C)NP(=O)(Oc1ccccc1)C(F)c1ccc2sc(C(=O)N[C@H]3C[C@H]4C[C@H]4C[C@H]4CC[C@@H](C(=O)N5CC(c6cnccc6N6CCOCC6)C5)N4C3=O)cc2c1` (stereo in doubt) [Compound 409, propyl(((R)-fluoro(2-(((3S,6S,7aS,8aR,9aR)-3-(3-(4-morpholinopyridin-3-yl)azetidine-1-carbonyl)-5-oxodecahydro-1H-cyclopropa[d]pyrrolo[1,2-a]azocin-6-yl)carbamoyl)benzo[b]thiophen-5-yl)methyl)(phenoxy)phosphoryl)-L-alaninate]: the IC50 is less than 0.1 µM. `CCCOC(=O)[C@H](COC)NP(=O)(Oc1ccccc1)C(F)c1ccc2sc(C(=O)N[C@H]3C[C@@H]4C[C@@H]4C[C@H]4CC[C@@H](C(=O)N5CC(c6cnccc6C)C5)N4C3=O)cc2c1` (stereo partly drawn) [Compound 284, propyl N-((fluoro(2-(((3S,6S,7aS,8aR,9aR)-3-(3-(4-methylpyridin-3-yl)azetidine-1-carbonyl)-5-oxodecahydro-1H-cyclopropa[d]pyrrolo[1,2-a]azocin-6-yl)carbamoyl)benzo[b]thiophen-5-yl)methyl)(phenoxy)phosphoryl)-O-methyl-L-serinate] had an IC50 of less than 0.1 µM. On the same count and under the same terms, the same measure for `CCCOC(=O)[C@H](C)NP(=O)(Oc1ccccc1)C(F)c1ccc2sc(C(=O)N[C@H]3C[C@@H]4C[C@@H]4C[C@H]4CC[C@@H](C(=O)N5CC(c6cnccc6N6CCN(C)CC6)C5)N4C3=O)cc2c1` (stereo partly drawn) [Compound 424, propyl(((R)-fluoro(2-(((3S,6S,7aS,8aR,9aR)-3-(3-(4-(4-methylpiperazin-1-yl)pyridin-3-yl)azetidine-1-carbonyl)-5-oxodecahydro-1H-cyclopropa[d]pyrrolo[1,2-a]azocin-6-yl)carbamoyl)benzo[b]thiophen-5-yl)methyl)(phenoxy)phosphoryl)-L-alaninate]: 0.1 to 1 µM. Regarding `CCCOC(=O)[C@@H](C)NP(=O)(Oc1ccccc1)C(F)c1ccc2sc(C(=O)N[C@H]3C[C@@H]4C[C@@H]4C[C@H]4CC[C@@H](C(=O)N5C[C@@H]6[C@H]5CCN6C(C)=O)N4C3=O)cc2c1` (stereo in doubt) [Compound 291, propyl(((2-(((3S,6S,7aS,8aR,9aR)-3-((1S,5S)-2-acetyl-2,6-diazabicyclo[3.2.0]heptane-6-carbonyl)-5-oxodecahydro-1H-cyclopropa[d]pyrrolo[1,2-a]azocin-6-yl)carbamoyl)benzo[b]thiophen-5-yl)fluoromethyl)(phenoxy)phosphoryl)-L-alaninate], the IC50 is less than 0.1 µM.

The experiment is the same for the next values; noted with them: PBMC, compound 3 hrs, then 10 ng/mL IL-6 for 10 min; MSD pY705-STAT3; read-out: pSTAT3.
On to `CCCOC(=O)[C@H](C)NP(=O)(Oc1ccccc1)C(F)c1ccc2sc(C(=O)N[C@H]3C[C@@H]4C[C@@H]4C[C@H]4CC[C@@H](C(=O)N5CC(c6nncn6C)C5)N4C3=O)cc2c1` (stereo partly drawn) [Compound 309, propyl ((fluoro(2-(((3S,6S,7aS,8aR,9aR)-3-(3-(4-methyl-4H-1,2,4-triazol-3-yl)azetidine-1-carbonyl)-5-oxodecahydro-1H-cyclopropa[d]pyrrolo[1,2-a]azocin-6-yl)carbamoyl)benzo[b]thiophen-5-yl)methyl)(phenoxy)phosphoryl)-L-alaninate], for which the IC50 was greater than 3 µM.

As to `CCOC(=O)[C@H](C)NC(=O)OCOP(=O)(Cc1ccc2sc(C(=O)N[C@H]3C[C@@H]4C[C@@H]4C[C@H]4CC[C@@H](C(=O)N5CC(C(=O)N6CCOCC6)C5)N4C3=O)cc2c1)OCOC(=O)N[C@@H](C)C(=O)OCC` [Compound 160, diethyl 2,2′-((((((((2-(((3S, 6S,7aS,8aR, 9aR)-3-(3-(morpholine-4-carbonyl)azetidine-1-carbonyl)-5-oxodecahydro-1H-cyclopropa [d]pyrrolo[1,2-a]azocin-6-yl)carbamoyl)benzo[b]thiophen-5-yl)methyl)phosphoryl)bis(oxy))bis(methylene))bis(oxy))bis(carbonate))bis(azanediyl)) (2S,2′S)-dipropionate], the IC50 is greater than 3 µM. On to `CCCOC(=O)[C@H](C)NP(=O)(Oc1ccccc1)C(F)c1ccc2sc(C(=O)N[C@H]3C[C@@H]4C[C@@H]4C[C@H]4CC[C@@H](C(=O)N5CC(c6cc(OC)no6)C5)N4C3=O)cc2c1` (stereo partly drawn) [Compound 362, propyl ((fluoro(2-(((3S,6S,7aS,8aR,9aR)-3-(3-(3-methoxyisoxazol-5-yl)azetidine-1-carbonyl)-5-oxodecahydro-1H-cyclopropa[d]pyrrolo[1,2-a]azocin-6-yl)carbamoyl)benzo[b]thiophen-5-yl)methyl)(phenoxy)phosphoryl)-L-alaninate], for which the IC50 is less than 0.1 µM.

Consider `CC(C)C[C@H](NP(=O)(Oc1ccccc1)C(F)(F)c1ccc2sc(C(=O)N[C@H]3C[C@@H]4C[C@@H]4C[C@H]4CC[C@@H](C(=O)N5CC(C(=O)N6CCOCC6)C5)N4C3=O)cc2c1)C(=O)OCc1ccccc1` (stereo partly drawn) [Compound 163, benzyl ((difluoro(2-(((3S,6S,7aS, 8aR,9aR)-3-(3-(morpholine-4-carbonyl)azetidine-1-carbonyl)-5-oxodecahydro-1H-cyclopropa[d]pyrrolo[1,2-a]azocin-6-yl)carbamoyl)benzo[b]thiophen-5-yl)methyl) (phenoxy)phosphoryl)-L-leucinate], for which the IC50 lay in the range of 1 to 3 µM.

Take `CCCOC(=O)[C@H](C)NP(=O)(Oc1ccccc1)C(F)c1ccc2sc(C(=O)N[C@H]3C[C@@H]4C[C@@H]4C[C@H]4CC[C@@H](C(=O)N5CC(c6nc(C)no6)C5)N4C3=O)cc2c1` (stereo partly drawn) [Compound 360, propyl ((fluoro(2-(((3S,6S,7aS,8aR,9aR)-3-(3-(3-methyl-1,2,4-oxadiazol-5-yl)azetidine-1-carbonyl)-5-oxodecahydro-1H-cyclopropa[d]pyrrolo[1,2-a]azocin-6-yl)carbamoyl)benzo[b]thiophen-5-yl)methyl)(phenoxy)phosphoryl)-L-alaninate]: the IC50 was less than 0.1 µM. In the case of “propyl(((2-(((3S,6S,8aR,9aS,9bR)-8a-methyl-5-oxo-3-(3-(pyridin-3-yl)azetidine-1-carbonyl)decahydro-1H-cyclopropa[c]pyrrolo[1,2-a]azocin-6-yl)carbamoyl)benzo[b]thiophen-5-yl)methyl)(phenoxy)phosphoryl)-L-alaninate [Compound 232]”, the IC50 was less than 0.1 µM. Turning to `CCCOC(=O)[C@H](C)N[P@@](=O)(Oc1ccccc1)[C@@H](F)c1ccc2sc(C(=O)N[C@H]3C[C@@H]4C[C@@H]4C[C@H]4CC[C@@H](C(=O)N5CC(c6cnccc6N(C)C)C5)N4C3=O)cc2c1` [Compound 414, propyl((S)-((R)-(2-(((3S,6S,7aS,8aR,9aR)-3-(3-(4-(dimethylamino)pyridin-3-yl)azetidine-1-carbnyl)-5-oxodecahydro-1H-cyclopropa[d]pyrrolo[1,2-a]azocin-6-yl)carbamoyl)benzo[b]thiophen-5-yl)fluoromethyl)(phenoxy)phosphoryl)-L-alaninate], the IC50 was less than 0.1 µM. Regarding “propyl(((2-(((3S,6S,7aS,8aR,9aR)-8a-methyl-5-oxo-3-(3-(pyridin-3-yl)azetidine-1-carbonyl)decahydro-1H-cyclopropa[d]pyrrolo[1,2-a]azocin-6-yl)carbamoyl)benzo[b]thiophen-5-yl)methyl)(phenoxy)phosphoryl)-L-alaninate [Compound 233]”, the IC50 was less than 0.1 µM. For `C[C@H](OP(=O)(Oc1ccccc1)C(F)(F)c1ccc2sc(C(=O)N[C@H]3C[C@@H]4C[C@@H]4C[C@H]4CC[C@@H](C(=O)N5CC(C(=O)N6CCOCC6)C5)N4C3=O)cc2c1)C(=O)OCc1ccccc1` (stereo partly drawn) [Compound 174, benzyl (2S)-2-(((difluoro(2-(((3S,6S,7aS, 8aR,9aR)-3-(3-(morpholine-4-carbonyl)azetidine-1-carbonyl)-5-oxodecahydro-1H-cyclopropa[d]pyrrolo[1,2-a]azocin-6-yl)carbamoyl)benzo[b]thiophen-5-yl)methyl) (phenoxy)phosphoryl)oxy) propanoate], the IC50 fell in the range of 1 to 3 µM.
